From patent US20250289813A1, “CDK INHIBITORS, PHARMACEUTICAL COMPOSITIONS, AND THERAPEUTIC APPLICATIONS” (ONQUALITY PHARMACEUTICALS CHINA LTD., priority 2022, published 2025)
pEC50, pIC50: −log10 of the molar value.

Legend:
CDK4/cyclin D1 = CDK4/cyclin D1 (Homo sapiens (Human), UniProt P11802); test: CDK4 Caliper Mobility Shift assay; assay type: biochemical
Protocol: (§1) A Caliper Mobility Shift assay was used to determine the inhibitory activities of a compound against CDK4/cyclin D1 and CDK6/cyclin D1 in their respective kinase buffers (CDK4: 20 mM HEPES, pH 7.5, and 0.01% Triton X-100; CDK6: 50 mM HEPES, pH 7.5, and 0.0015% BRIJ-35). The CDK4/cyclin D1 and CDK6/cyclin D1 were obtained from PROQINASE and CARNA, respectively. A FAM-labeled peptide was obtained from GL.
(§2) The compound at predetermined concentrations was pre-incubated with CDK4/cyclin D1 or CDK6/cyclin D1 in a 384-well microplate at room temperature for 10 min. The FAM-labeled peptide and ATP were subsequently added to initiate the kinase reactions. The final enzyme concentrations were 15 nM for CDK4 and 7.5 nM for CDK6. The final ATP concentrations were […] for CDK4 and […] for CDK6. The microplate was allowed to incubate at 28° C. The kinase reactions were stopped by adding a stop buffer (100 mM HEPES, pH 7.5, 0.012% BRIJ-35, 0.2% Coating Reagent 3 (Caliper Life Sciences), and […]). Conversion data were recorded and utilized to calculate the percent inhibition values for each compound and an IC50 value was then determined. The results are summarized in Table 1, where the symbol “***” represents a value no greater than 200 nM, the symbol “**” represents a value greater than 200 nM but no greater than 500 nM, and the symbol “*” represents a value greater than 500 nM.

CDK6/cyclin D1 = CDK6/cyclin D1 (Homo sapiens (Human), UniProt Q00534); test: CDK6 Caliper Mobility Shift assay; assay type: biochemical
Sequence of CDK6/cyclin D1 (Q00534 whole entry): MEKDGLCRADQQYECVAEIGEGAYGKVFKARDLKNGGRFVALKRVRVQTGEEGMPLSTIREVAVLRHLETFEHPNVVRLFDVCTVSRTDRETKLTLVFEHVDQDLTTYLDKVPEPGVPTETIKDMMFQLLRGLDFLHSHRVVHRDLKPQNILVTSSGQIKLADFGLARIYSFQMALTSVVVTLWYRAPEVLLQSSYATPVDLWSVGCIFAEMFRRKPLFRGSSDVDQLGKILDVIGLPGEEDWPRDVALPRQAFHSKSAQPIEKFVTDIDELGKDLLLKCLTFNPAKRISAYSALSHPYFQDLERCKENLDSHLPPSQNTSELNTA
Sequence of CDK6/cyclin D1 (P24385 whole entry partner): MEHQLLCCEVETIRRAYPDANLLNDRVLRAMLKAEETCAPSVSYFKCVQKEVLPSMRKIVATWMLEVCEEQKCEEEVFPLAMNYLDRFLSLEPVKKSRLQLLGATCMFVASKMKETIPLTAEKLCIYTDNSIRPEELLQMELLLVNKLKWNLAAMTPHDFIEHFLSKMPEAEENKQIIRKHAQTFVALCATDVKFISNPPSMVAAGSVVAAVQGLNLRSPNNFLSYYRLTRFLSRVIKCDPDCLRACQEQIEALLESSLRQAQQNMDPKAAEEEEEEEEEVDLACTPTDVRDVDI
Protocol: as §1, §2

[1] = test system: MCF-7 human breast cancer cells; test: CELLTITER-GLO luminescent cell viability assay; assay type: cell-based; conditions: MCF7, 192 h, MCF-7 cells, 8 days, read-out: EC50 (Effect on Cell Viability)
Protocol: A CELLTITER-GLO luminescent cell viability assay was carried out using MCF-7 human breast cancer cells under the normal growth condition. The MCF-7 human breast cancer cells were grown at 37° C. in a 5% CO2 humidified incubator in EMEM, supplemented 10% FBS, 0.01 mg/mL bovine insulin. The cells were seeded at a 3,000 cells/well in a 96-well tissue culture plate. The cells were allowed to adhere overnight in the incubator. A compound (5 μL) in a medium at a predetermined concentration. After the cells was incubated at 37° C. for 8 days, a CELLTITER-GLO detection solution (100 μL) was added. The cells were mixed on an orbital shaker for 5 min and then incubated for additional 10 min. The plate was read with an ENVISION reader. The results are summarized in Table 2, where the symbol “+++” represents a value no greater than 1 μM, the symbol “++” represents a value greater than 1 μM but no greater than 10 μM, and the symbol “+” represents a value greater than 10 μM.

Sequence of CDK4/cyclin D1 (P11802 whole entry): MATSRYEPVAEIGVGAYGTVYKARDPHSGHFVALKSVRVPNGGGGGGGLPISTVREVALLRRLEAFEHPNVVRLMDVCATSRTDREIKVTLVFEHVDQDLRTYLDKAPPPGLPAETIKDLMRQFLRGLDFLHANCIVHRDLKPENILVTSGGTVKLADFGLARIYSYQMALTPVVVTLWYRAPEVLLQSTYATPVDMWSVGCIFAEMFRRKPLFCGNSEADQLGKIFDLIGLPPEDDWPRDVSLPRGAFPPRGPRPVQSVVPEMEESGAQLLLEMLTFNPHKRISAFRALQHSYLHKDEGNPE
Sequence of CDK4/cyclin D1 (P24385 whole entry partner): as the sequence (P24385 whole entry partner) above

SMILES | pIC50 (CDK4/cyclin D1) | pIC50 (CDK6/cyclin D1) | pEC50 [1]
CC(=O)OCCOC(=O)NS(=O)(=O)N1CCN(c2ccc(Nc3ncc4c(C)c(C(C)=O)c(=O)n(C5CCCC5)c4n3)nc2)CC1 [Compound A9, 2-((((4-(6-((6-Acetyl-8-cyclopentyl-5-methyl-7-oxo-7,8-dihydropyrido[2,3-d]-pyrimidin-2-yl)amino)pyridin-3-yl)piperazin-1-yl)sulfonyl)carbamoyl)oxy)ethyl acetate] | ≥ 6.70 | ≥ 6.70 | 5.00 to 6.00
CC(=O)c1c(C)c2cnc(Nc3ccc(N4CCN(S(=O)(=O)NC(=O)OC5CCC5)CC4)cn3)nc2n(C2CCCC2)c1=O [Compound A23, Cyclobutyl ((4-(6-((6-acetyl-8-cyclopentyl-5-methyl-7-oxo-7,8-dihydropyrido[2,3-d]pyrimidin-2-yl)amino)pyridin-3-yl)piperazin-1-yl)sulfonyl)carbamate] | < 6.30 | ≥ 6.70 | 5.00 to 6.00
COCCNS(=O)(=O)N1CCN(c2ccc(Nc3ncc4c(C)c(C(C)=O)c(=O)n(C5CCCC5)c4n3)nc2)CC1 [Compound A43, 4-(6-((6-Acetyl-8-cyclopentyl-5-methyl-7-oxo-7,8-dihydropyrido[2,3-d]-pyrimidin-2-yl)amino)pyridin-3-yl)-N-(2-methoxyethyl)piperazine-1-sulfonamide] | ≥ 6.70 | ≥ 6.70 | 5.00 to 6.00
CSCC[C@H](N)C(=O)NCCOC(=O)NS(=O)(=O)N1CCN(c2ccc(Nc3ncc4c(C)c(C(C)=O)c(=O)n(C5CCCC5)c4n3)nc2)CC1 [Compound A19, (S)-2-(2-Amino-4-(methylthio)butanamido)ethyl ((4-(6-((6-acetyl-8-cyclopentyl-5-methyl-7-oxo-7,8-dihydropyrido[2,3-d]pyrimidin-2-yl)amino)pyridin-3-yl)piperazin-1-yl)-sulfonyl)carbamate] | ≥ 6.70 | ≥ 6.70 | < 5.00
CC(=O)c1c(C)c2cnc(Nc3ccc(N4CCN(S(=O)(=O)NC(C)C)CC4)cn3)nc2n(C2CCCC2)c1=O [Compound A48, 4-(6-((6-Acetyl-8-cyclopentyl-5-methyl-7-oxo-7,8-dihydropyrido[2,3-d]-pyrimidin-2-yl)amino)pyridin-3-yl)-N-isopropylpiperazine-1-sulfonamide] | ≥ 6.70 | ≥ 6.70 | 5.00 to 6.00
CCCC(=O)NS(=O)(=O)N1CCN(c2ccc(Nc3ncc4c(C)c(C(C)=O)c(=O)n(C5CCCC5)c4n3)nc2)CC1 [Compound A37, N-((4-(6-((6-Acetyl-8-cyclopentyl-5-methyl-7-oxo-7,8-dihydropyrido[2,3-d]-pyrimidin-2-yl)amino)pyridin-3-yl)piperazin-1-yl)sulfonyl)butyramide] | 6.30 to 6.70 | 6.30 to 6.70 | 5.00 to 6.00
CCCNS(=O)(=O)N1CCN(c2ccc(Nc3ncc4c(C)c(C(C)=O)c(=O)n(C5CCCC5)c4n3)nc2)CC1 [Compound A49, 4-(6-((6-Acetyl-8-cyclopentyl-5-methyl-7-oxo-7,8-dihydropyrido[2,3-d]-pyrimidin-2-yl)amino)pyridin-3-yl)-N-propylpiperazine-1-sulfonamide] | 6.30 to 6.70 | 6.30 to 6.70 | < 5.00
CC(=O)c1c(C)c2cnc(Nc3ccc(N4CCN(S(=O)(=O)NC(=O)C5CCC5)CC4)cn3)nc2n(C2CCCC2)c1=O [Compound A41, N-((4-(6-((6-Acetyl-8-cyclopentyl-5-methyl-7-oxo-7,8-dihydropyrido[2,3-d]-pyrimidin-2-yl)amino)pyridin-3-yl)piperazin-1-yl)sulfonyl)cyclobutanecarboxamide] | 6.30 to 6.70 | 6.30 to 6.70 | 5.00 to 6.00
CC(=O)c1c(C)c2cnc(Nc3ccc(N4CCN(S(=O)(=O)NC(=O)OCCNC(=O)[C@@H](N)CO)CC4)cn3)nc2n(C2CCCC2)c1=O [Compound A18, (S)-2-(2-Amino-3-hydroxypropanamido)ethyl ((4-(6-((6-acetyl-8-cyclopentyl-5-methyl-7-oxo-7,8-dihydropyrido[2,3-d]pyrimidin-2-yl)amino)pyridin-3-yl)piperazin-1-yl)-sulfonyl)carbamate] | ≥ 6.70 | ≥ 6.70 | < 5.00
CCNS(=O)(=O)N1CCN(c2ccc(Nc3ncc4c(C)c(C(C)=O)c(=O)n(C5CCCC5)c4n3)nc2)CC1 [Compound A47, 4-(6-((6-Acetyl-8-cyclopentyl-5-methyl-7-oxo-7,8-dihydropyrido[2,3-d]-pyrimidin-2-yl)amino)pyridin-3-yl)-N-ethylpiperazine-1-sulfonamide] | ≥ 6.70 | ≥ 6.70 | 5.00 to 6.00

Other lines, results leading:

pIC50 (CDK4/cyclin D1) | pIC50 (CDK6/cyclin D1) | pEC50 [1] | SMILES
≥ 6.70 | ≥ 6.70 | 5.00 to 6.00 | CC(=O)c1c(C)c2cnc(Nc3ccc(N4CCN(S(N)(=O)=O)C[C@@H]4C)cn3)nc2n(C2CCCC2)c1=O [Compound A3, (S)-4-(6-((6-acetyl-8-cyclopentyl-5-methyl-7-oxo-7,8-dihydropyrido[2,3-d]-pyrimidin-2-yl)-amino)pyridin-3-yl)-3-methylpiperazine-1-sulfonamide]
≥ 6.70 | ≥ 6.70 | ≥ 6.00 | CC(=O)c1c(C)c2cnc(Nc3ccc(N4CCN(S(=O)(=O)NC(=O)C(N)C(C)C)CC4)cn3)nc2n(C2CCCC2)c1=O (stereo not drawn) [Compound A30, N-((4-(6-((6-Acetyl-8-cyclopentyl-5-methyl-7-oxo-7,8-dihydropyrido[2,3-d]-pyrimidin-2-yl)amino)pyridin-3-yl)piperazin-1-yl)sulfonyl)-2-amino-3-methylbutanamide]
≥ 6.70 | ≥ 6.70 | 5.00 to 6.00 | CC(=O)c1c(C)c2cnc(Nc3ccc(N4CCN(S(=O)(=O)NCCO)CC4)cn3)nc2n(C2CCCC2)c1=O [Compound A42, 4-(6-((6-Acetyl-8-cyclopentyl-5-methyl-7-oxo-7,8-dihydropyrido[2,3-d]-pyrimidin-2-yl)amino)pyridin-3-yl)-N-(2-hydroxyethyl)piperazine-1-sulfonamide]
6.30 to 6.70 | ≥ 6.70 | < 5.00 | COCCOC(=O)NS(=O)(=O)N1CCN(c2ccc(Nc3ncc4c(C)c(C(C)=O)c(=O)n(C5CCCC5)c4n3)nc2)CC1 [Compound A8, 2-Methoxyethyl ((4-(6-((6-acetyl-8-cyclopentyl-5-methyl-7-oxo-7,8-dihydropyrido[2,3-d]pyrimidin-2-yl)amino)pyridin-3-yl)piperazin-1-yl)sulfonyl)carbamate]
≥ 6.70 | 6.30 to 6.70 | 5.00 to 6.00 | CC(=O)c1c(C)c2cnc(Nc3ccc(N4CCN(S(=O)(=O)NC(=O)OC(C)C)CC4)cn3)nc2n(C2CCCC2)c1=O [Compound A27, Isopropyl ((4-(6-((6-acetyl-8-cyclopentyl-5-methyl-7-oxo-7,8-dihydropyrido[2,3-d]pyrimidin-2-yl)amino)pyridin-3-yl)piperazin-1-yl)sulfonyl)carbamate]
≥ 6.70 | ≥ 6.70 | < 5.00 | CC(=O)c1c(C)c2cnc(Nc3ccc(N4CCN(S(=O)(=O)NC(=O)OC(C)(C)C)CC4)cn3)nc2n(C2CCCC2)c1=O [Compound A4, tert-butyl ((4-(6-((6-acetyl-8-cyclopentyl-5-methyl-7-oxo-7,8-dihydropyrido[2,3-d]pyrimidin-2-yl)amino)pyridin-3-yl)piperazin-1-yl)sulfonyl)carbamate]
